Results taken from the NIST ThermoML archive (doi:10.1021/je8008073).

Experiment: wn = mass fraction of the nth substance listed
Details: Liquid; for mass density: Vibrating tube method; for viscosity: Falling or rolling sphere viscometry

CC(C)Cc1ccccc1 [(2-methylpropyl)benzene] + c1ccc2c(c1)CCCC2
Details	mass density [kg/m3]	viscosity [mPa·s]
293.15 K, 100 kPa, w2 = 0.5	907.9	–
293.15 K, 2000 kPa, w2 = 0.5	909.1	–
293.15 K, 4000 kPa, w2 = 0.5	910.3	–
293.15 K, 6000 kPa, w2 = 0.5	911.6	–
293.15 K, 8000 kPa, w2 = 0.5	913	–
293.15 K, 10000 kPa, w2 = 0.5	914.3	–
293.15 K, 12000 kPa, w2 = 0.5	915.4	–
293.15 K, 14000 kPa, w2 = 0.5	916.6	–
293.15 K, 16000 kPa, w2 = 0.5	917.7	–
293.15 K, 18000 kPa, w2 = 0.5	918.8	–
293.15 K, 20000 kPa, w2 = 0.5	920.1	–
295.65 K, 100 kPa, w2 = 0.5	905.7	–
295.65 K, 2000 kPa, w2 = 0.5	906.8	–
295.65 K, 4000 kPa, w2 = 0.5	908.1	–
295.65 K, 6000 kPa, w2 = 0.5	909.3	–
295.65 K, 8000 kPa, w2 = 0.5	910.6	–
295.65 K, 10000 kPa, w2 = 0.5	911.9	–
295.65 K, 12000 kPa, w2 = 0.5	913.1	–
295.65 K, 14000 kPa, w2 = 0.5	914.3	–
295.65 K, 16000 kPa, w2 = 0.5	915.4	–
295.65 K, 18000 kPa, w2 = 0.5	916.6	–
295.65 K, 20000 kPa, w2 = 0.5	917.7	–
298.15 K, 100 kPa, w2 = 0.48	901.3	–
298.15 K, 100 kPa, w2 = 0.49	902.5	–
298.15 K, 100 kPa, w2 = 0.5	903.6	1.33
298.15 K, 100 kPa, w2 = 0.51	905	–
298.15 K, 100 kPa, w2 = 0.52	906	–
298.15 K, 2000 kPa, w2 = 0.48	902.6	–
298.15 K, 2000 kPa, w2 = 0.49	903.8	–
298.15 K, 2000 kPa, w2 = 0.5	904.7	–
298.15 K, 2000 kPa, w2 = 0.51	906.2	–
298.15 K, 2000 kPa, w2 = 0.52	907.3	–
298.15 K, 4000 kPa, w2 = 0.48	904	–
298.15 K, 4000 kPa, w2 = 0.49	905.1	–
298.15 K, 4000 kPa, w2 = 0.5	906.1	1.37
298.15 K, 4000 kPa, w2 = 0.51	907.6	–
298.15 K, 4000 kPa, w2 = 0.52	908.8	–
298.15 K, 6000 kPa, w2 = 0.48	905.3	–
298.15 K, 6000 kPa, w2 = 0.49	906.4	–
298.15 K, 6000 kPa, w2 = 0.5	907.5	–
298.15 K, 6000 kPa, w2 = 0.51	908.8	–
298.15 K, 6000 kPa, w2 = 0.52	910	–
298.15 K, 8000 kPa, w2 = 0.48	906.6	–
298.15 K, 8000 kPa, w2 = 0.49	907.7	–
298.15 K, 8000 kPa, w2 = 0.5	908.8	–
298.15 K, 8000 kPa, w2 = 0.51	910.1	–
298.15 K, 8000 kPa, w2 = 0.52	911.2	–
298.15 K, 10000 kPa, w2 = 0.48	907.8	–
298.15 K, 10000 kPa, w2 = 0.49	909	–
298.15 K, 10000 kPa, w2 = 0.5	910.1	1.43
298.15 K, 10000 kPa, w2 = 0.51	911.2	–
298.15 K, 10000 kPa, w2 = 0.52	912.4	–
298.15 K, 12000 kPa, w2 = 0.48	909	–
298.15 K, 12000 kPa, w2 = 0.49	910.2	–
298.15 K, 12000 kPa, w2 = 0.5	911.3	–
298.15 K, 12000 kPa, w2 = 0.51	912.5	–
298.15 K, 12000 kPa, w2 = 0.52	913.6	–
298.15 K, 14000 kPa, w2 = 0.48	910.2	–
298.15 K, 14000 kPa, w2 = 0.49	911.5	–
298.15 K, 14000 kPa, w2 = 0.5	912.5	–
298.15 K, 14000 kPa, w2 = 0.51	913.7	–
298.15 K, 14000 kPa, w2 = 0.52	914.8	–
298.15 K, 16000 kPa, w2 = 0.48	911.4	–
298.15 K, 16000 kPa, w2 = 0.49	912.6	–
298.15 K, 16000 kPa, w2 = 0.5	913.7	–
298.15 K, 16000 kPa, w2 = 0.51	915	–
298.15 K, 16000 kPa, w2 = 0.52	916	–
298.15 K, 18000 kPa, w2 = 0.48	912.6	–
298.15 K, 18000 kPa, w2 = 0.49	913.7	–
298.15 K, 18000 kPa, w2 = 0.5	914.9	–
298.15 K, 18000 kPa, w2 = 0.51	916.1	–
298.15 K, 18000 kPa, w2 = 0.52	917.1	–
298.15 K, 20000 kPa, w2 = 0.48	913.8	–
298.15 K, 20000 kPa, w2 = 0.49	914.9	–
298.15 K, 20000 kPa, w2 = 0.5	916.1	–
298.15 K, 20000 kPa, w2 = 0.51	917.2	–
298.15 K, 20000 kPa, w2 = 0.52	918.2	–
300.65 K, 100 kPa, w2 = 0.5	901.5	–
300.65 K, 2000 kPa, w2 = 0.5	902.9	–
300.65 K, 4000 kPa, w2 = 0.5	904.2	–
300.65 K, 6000 kPa, w2 = 0.5	905.4	–
300.65 K, 8000 kPa, w2 = 0.5	906.8	–
300.65 K, 10000 kPa, w2 = 0.5	908	–
300.65 K, 12000 kPa, w2 = 0.5	909.2	–
300.65 K, 14000 kPa, w2 = 0.5	910.4	–
300.65 K, 16000 kPa, w2 = 0.5	911.6	–
300.65 K, 18000 kPa, w2 = 0.5	912.8	–
300.65 K, 20000 kPa, w2 = 0.5	914	–
303.15 K, 100 kPa, w2 = 0.5	900	–
303.15 K, 2000 kPa, w2 = 0.5	901.3	–
303.15 K, 4000 kPa, w2 = 0.5	902.6	–
303.15 K, 6000 kPa, w2 = 0.5	904	–
303.15 K, 8000 kPa, w2 = 0.5	905.3	–
303.15 K, 10000 kPa, w2 = 0.5	906.5	–
303.15 K, 12000 kPa, w2 = 0.5	907.8	–
303.15 K, 14000 kPa, w2 = 0.5	909	–
303.15 K, 16000 kPa, w2 = 0.5	910.3	–
303.15 K, 18000 kPa, w2 = 0.5	911.4	–
303.15 K, 20000 kPa, w2 = 0.5	912.6	–
